{
  "source": "patent US7060293B1",
  "about": "“Powder-layered oral dosage forms” (Purdue Pharma, priority 1994, dated 2006)",
  "note": "Where a name gives a salt, the structure may show the parent alone.",
  "data": [
    {"assay": "Bulk density (poured and tapped) of drug powders and processing aid", "format": "physicochemical", "conditions": "entries with asterisk: Bulk Densities performed at PRC", "units": {"Tapped Bulk Densities": "g/mL"}, "values": [
      {"compound": "COc1cccc(C2(O)CCCCC2CN(C)C)c1", "note": "(stereo not shown) [Tramadol HCL]", "Tapped Bulk Densities": 0.42},
      {"compound": "Cn1c(=O)c2[nH]cnc2n(C)c1=O", "note": "[Aminophylline USP, Aminophylline]", "Tapped Bulk Densities": 0.62},
      {"compound": "Cn1c(=O)c2[nH]cnc2n(C)c1=O", "note": "[Theophylline Anhydrous]", "Tapped Bulk Densities": 0.44},
      {"compound": "O=C1O[C@H]([C@@H](O)CO)C([O-])=C1O.[Na+]", "note": "[Sodium Ascorbate USP, Sodium Ascorbate]", "Tapped Bulk Densities": 0.66},
      {"compound": "O=C(O)Cc1ccccc1Nc1c(Cl)cccc1Cl", "note": "[Diclofenac Sodium]", "Tapped Bulk Densities": 0.31}
    ]},
    {"assay": "Bulk density (poured and tapped) of drug powders and processing aid", "format": "physicochemical", "conditions": "powder used in the examples", "values": [
      {"compound": "COc1cccc(C2(O)CCCCC2CN(C)C)c1", "note": "(stereo not shown) [Tramadol HCL]", "bulk density": "about 0.42 g/ml"},
      {"compound": "Codeine Sulfate [Codeine Sulfate USP Medium Crystals Fine]", "bulk density": "about 0.6 g/ml"},
      {"compound": "O.OC[C@H]1O[C@@H](O[C@H]2[C@H](O)[C@@H](O)[C@@H](O)O[C@@H]2CO)[C@H](O)[C@@H](O)[C@H]1O", "note": "[lactose hydrous impalpable]", "bulk density": "0.56 g/mL", "tapped bulk density": "about 0.64 g/ml"},
      {"compound": "CCN(CC)CCNC(=O)c1cc(Cl)c(N)cc1OC", "note": "[Metoclopramide HCL]", "bulk density": "about 0.5 g/ml"},
      {"compound": "CC(=O)Nc1ccc(O)cc1", "note": "[Acetaminophen]", "bulk density": "about 0.42 g/ml"}
    ]},
    {"assay": "not given", "conditions": "entries without asterisk (not marked as performed at PRC); cited from earlier work", "units": {"Tapped Bulk Densities": "g/mL"}, "values": [
      {"compound": "Doxycycline Metaphosphate Sodium Complex", "Tapped Bulk Densities": 0.49},
      {"compound": "CCN(CC)CCNC(=O)c1cc(Cl)c(N)cc1OC", "note": "[Metoclopramide HCL]", "Tapped Bulk Densities": 0.5}
    ]}
  ]
}
